The text below walks through data of patent publication US20200289611A1, “Methods and Compositions for the Inhibition of Quorum Sensing in Bacterial Infections” (priority 2016, published 2020).

Molecules are shown by their SMILES. Entries after “also recorded” stand apart in the source; their conditions may differ. Bounds are passed on as bounds.

One assay relates to MRSA transcriptome (LAC). Briefly: RNA-seq of WT LAC cultures. Format: cell-based, Staphylococcus aureus. Here is the method: Cultures of LAC and LAC ? agr were grown in TSB with DMSO alone or 100 µM apicidin (diluted in neat DMSO). All four cultures were grown to optical density of 1.4 at 600 nm, and the RNA was purified. The samples were subjected to DNase treatment and sample was quality was affirmed via Bioanalyzer (Agilent). […] was depleted with a Ribo-Zero rRNA Removal Kit from gram positive bacteria (Illumina). cDNA libraries were generated at the University of Iowa Genomics Division using the TruSeq Stranded mRNA Library Prep kit (Illumina). Sample were barcoded, pooled and sequenced in a 100×100 pared end reads using HiSeq_FPR3757 genome sequence using SeqMan NGen (DNASTAR) and the alignment were analyzed using ArrayStar (DNASTAR).
To evaluate the impact of apicidin upon global transcriptional regulation RNA-seq analysis upon WT LAC cultures grown in the presence of apicidin or vehicle was conducted. For purposes of comparing the effects of apicidin upon the MRSA transcriptome with those resulting from agr deletion, parallel RNA seq-analysis of WT and Δagr preparations were performed. A four-fold cutoff as the threshold for differential gene expression was used, and apicidin altered the expression of thirty transcripts, with >50% of these representing prototypical agr targets such hla, RNAIII, psms, and spl genes (FIG. 10).

Assay [1] concerns CXCL-2 and G-CSF in lesional tissue. Briefly: Cytokine measurements from tissue homogenates. Conditions: lesional tissue one day after infection. Format: in vivo, mice. Here is the method:
Biopsy punches (4 mm), obtained from the center of skin ulcerations 1 day after infection, were homogenized with in sterile RPMI with proteinase inhibitor cocktail. The supernatants from these preparations were incubated with a multiplex bead array for IL-1β, G-CSF, KC (CXCL1), and CXCL2. Data were collected on a Luminex 200 (Luminex, Austin, Tex., USA) and analyzed with […]

A further assay concerns S. aureus LAC. Kind of assay: Bacterial growth (OD) in reporter time course. Format: cell-based, Staphylococcus aureus. Here is the method:
(§1) Apicidin was tested for quorum quenching activity against all four agr types using P3-YFP reporter strains AH1677 (type I), AH430 (type II) AH1747 (type III), and AH1872 (type IV). (28) Overnight cultures of reporter strains that were grown in TSB supplemented with Cam were inoculated at a dilution of 1:250 into fresh TSB containing Cam. 100 μL, aliquots were added to 96-well microtiter plates containing 100 μL aliquots of TSB containing Cam and 2-fold serial dilutions of apicidin. Readings were recorded at 30 min increments using a Tecan Systems Infinite M200 plate reader.
Overnight cultures of agr strain types I, II, III, and IV were inoculated 1:500 into 5 ml of TSB (in 17×150 mm culture tubes) containing apicidin at concentrations of 100, 50, 25, 12.5, and 6.25 μg mL (28). All cultures were incubated at 37° C. with shaking (250 rpm), and growth was monitored by periodically transferring 100 μL of culture to a 96-well microtiter plate and reading OD600 in a Tecan Systems Infinite M200 plate reader. […] To quantify hemolytic activity, the filter sterilized culture supernatants from apicidin treated cultures were serially in TSB, and 50 μL aliquots were dispensed in quadruplicate into 96-well microtiter plates. […] Hemolysis was detected by the loss of turbidity as measured at OD630 using a Tecan Infinite M200 plate reader.

For assay [2], the system named is agr (P3-YFP reporter strains, agr types I-IV). Kind of assay: agr P3-YFP reporter quorum quenching assay. It counts as cell-based, Staphylococcus aureus. Here is the method:
as §1

The test system of assay [3] is AIP signal biosynthesis (AgrB/AgrD). Briefly: Mass spectrometric measurement of AIP production (agrBD in agr null LAC). Format: cell-based, Staphylococcus aureus. Conditions: apicidin treated vs vehicle cultures. Here is the method: (§2) To investigate the mechanisms by which apicidin inhibits quorum sensing, a series of in vitro assays were conducted to systematically assess the relative contribution of each of the core genetic elements of the agrBDCA operon (FIG. 13A). The membrane embedded peptidase AgrB, is responsible for processing the AgrD pro-peptide (immature AIP) for extracellular release. To determine if apicidin inhibits agr signaling at the level of AIP signal generation, an established system was used whereby the agrBD genes (under sarA P1 promoter regulation), were integrated into an agr null strain derived from the USA300 isolate LAC (40). This construct enables alterations to AIP signal biosynthesis to be clearly delineated from regulation stemming from signal integration. […] Next, the possibility that apicidin interferes with the sensory activity of AIP receptor AgrC was explored. For this, a R235H construct bearing a point mutation that confers constitutive AgrC activity, and thereby enables phospho-activation of AgrA to occur independently of AIP binding, was employed. […] Next, it was determined if AgrA serves as the target of apicidin. To this end, an agr null reporter construct, whereby agrP3 lux activation can only be achieved through the constitutive production of plasmid encoded AgrA […], was employed. […]

Another assay addresses T1, AgrA (Staphylococcus aureus, UniProt P0A0I7).
T1 construct: expressed in transfected cells; host or cells: agr null S. aureus agrP3-lux reporter strain
Briefly: agr null agrP3 lux reporter with plasmid encoded AgrA. It counts as cell-based. Conditions: agr null strain. Here is the method: as §2

T1 sequence (P0A0I7 whole entry): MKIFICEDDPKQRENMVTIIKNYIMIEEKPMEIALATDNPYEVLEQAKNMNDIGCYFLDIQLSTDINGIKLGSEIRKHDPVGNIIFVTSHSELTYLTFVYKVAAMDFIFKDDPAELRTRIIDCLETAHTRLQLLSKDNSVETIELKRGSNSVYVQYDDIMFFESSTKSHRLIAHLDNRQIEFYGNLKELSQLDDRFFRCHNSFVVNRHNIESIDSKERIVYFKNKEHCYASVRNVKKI

For the molecule `CCC(=O)CCCCC[C@@H]1NC(=O)[C@H]2CCCCN2C(=O)[C@H](C(C)CC)NC(=O)[C@H](Cc2cn(OC)c3ccccc23)NC1=O` (stereo partly shown) [apicidin], the transcriptional signature result with MRSA transcriptome (LAC) is given as “narrowly focused upon the agr virulon; also recorded: largely confined to agr-regulated transcripts”. Besides, the “number of transcripts with altered expression” value in the assay on MRSA transcriptome (LAC) (100 uM apicidin, four-fold cutoff) was “thirty”. Besides, the “share of altered transcripts that are prototypical agr targets” value in the assay on MRSA transcriptome (LAC) (four-fold cutoff) is listed as above 50%. In addition, in assay [1], the “production of CXCL-2” value is listed as “decrease” and the “production of G-CSF” value is “decrease”. Moreover, the “growth inhibition / bactericidal effect” value in the assay with S. aureus LAC was “non-bactericidal; also recorded: minimal growth inhibition”. The “agr inhibition relative to its analogues” value in assay [2] is reported as “showed the most impressive actions as an agr inhibitor”. For the same molecule, the “MICs for quorum sensing inhibition” value in assay [2] (across S. aureus isolates) is given as “low micromolar”. Moreover, the “agr-type dependence of quorum quenching potency” value in assay [2] (agr P3 driven YFP expression, time course) was “types II and IV representing the most sensitive and resistant respectively”. For the same molecule, the “inhibition of quorum sensing (agr P3 reporter)” value in assay [2] (agr types I-IV reporter strains) is “inhibited quorum sensing activity across S. aureus isolates; also recorded: inhibition extends to all 4 agr types; also recorded: inhibited the quorum sensing responses of multiple agr types”. The IC50 of agr-inhibition entry in assay [2] (all agr types) is “μM concentrations that were sub-inhibitory for growth”. The “effect on AIP production” value in assay [3] was “does not target AIP signal biosynthesis; also recorded: does not alter the release of AIP signals”. In addition, at AgrA, the “inhibition of AgrA-dependent agr-P3 reporter activation” value was “dose dependent inhibition of agr-P3 driven bioluminescence; also recorded: inhibited agr-P3 reporter activation”.
